Results reported in patent US20110319611A1, “BENZOXAZINONE COMPOUND, METHOD FOR PRODUCING THE SAME, AND PHARMACEUTICAL COMPOSITION CONTAINING THE SAME” (Chang Gung University, priority 2010, published 2011).

Key:
[1] = system: lung injury caused by trauma-hemorrhagic shock; assay: Myeloperoxidase (MPO) activity in lung tissue after trauma-hemorrhagic shock; assay type: in vivo, rat
Procedure: (§1) Specifically, the effects of compound E7 on water content in lung tissues and myeloperoxidase (MPO) activity were measured.
(§2) In brief, male Sprague-Dawley (S.D.) rats having a body weight ranging from 275 to 325 g were obtained from National Laboratory Animal Center. The rats were randomly divided into four groups including experimental groups 1 and 2 and sham-operated groups 1 and 2. Each group included 8 rats. All rats were raised in an air-conditioned room with the following conditions: a light-dark cycle of 12-14 hours of illumination and 10-12 hours of darkness, 20-26° C., and relative humidity of 40-60%. The rats were free to have sufficient drinking water and feed and lived in the aforesaid room for one week to adapt to the environment. Before beginning the experiments, the rats were starved overnight while allowed to have sufficient drinking water ad libitum. The rats were anesthetized by isoflurane (Attane, Minrad, Bethlehem, Pa.) inhalation and were subjected to 5-cm midline laparotomy in the abdomen. […] The total amount of the blood volume of maximum bleed-out was recorded. […]
Activity of MPO was determined based on a method disclosed in H. P. Yu et al., Biochem. Pharmacol., 78: 983-992, 2009. […]

[2] = system: lung injury caused by trauma-hemorrhagic shock; assay: Water content assay of lung tissue after trauma-hemorrhagic shock; assay type: in vivo, rat
Procedure: as §1, §2
The left upper lobe was weighted and the weight was referred to as “wet weight”. The left upper lobe was then dried at 80° C. for 24 hours, and the weight, referred to as dry weight, thereof was measured. […]
The data were analyzed using the GraphPad Prism software (GraphPad Software, San Diego, Calif.). […]

Human neutrophils [3] = assay: O2•− generation assay (SOD-inhibitable reduction of ferricytochrome c) in FMLP/CB-activated neutrophils; assay type: cell-based; settings: Neutrophil, absorbance 550 nm, mean ± S.E.M. (n = 3)
Procedure: (§3) Human neutrophils were prepared by the following procedure. […] The precipitate thus obtained was treated with a hypotonic solution, i.e., 0.2% NaCl, to lyse erythrocytes, followed by removal of the lysed erythrocytes using centrifugation at 200 g and 4° C. for 8 minutes so as to obtain the neutrophils. […] The neutrophil suspension was stored at 4° C. before use.
The O2^•− generation assay was based on the superoxide dismutase (SCD)-inhinitable reduction of ferricytochrome c. […] The neutrophils obtained in the section of “3. […] In a control group, 100% DMSO was used to substitute the compound solution. Moreover, in the positive control group, diphenyleneiodonium (DPI) was used to substitute the compound solution. The reacted mixture was added with 1.5 μl of cytochalasin B (CB, […]) and was incubated for […], followed by addition with 1.5 μl of formyl-L-methionyl-L-leucyl-L-phenylalanine (FMLP, 100 μM) and reaction for 10 minutes to activate neutrophils.

Human neutrophils [4] = assay: Release of human neutrophil elastase (NE) from FMLP/CB-activated neutrophils; assay type: cell-based; settings: substrate MeO-Suc-Ala-Ala-Pro-Val-p-nitroanilide, 405 nm, mean ± S.E.M. (n = 3)
Procedure: as §3
The neutrophils obtained in the section of “3. […] In a control group, 100% DMSO was used to substitute the compound solution. […] The reacted mixture was added with 1.5 μl of cytochalasin B (CB, 0.5 mg/ml) and was incubated for 3 minutes, followed by addition with 1.5 μl of formyl-L-methionyl-L-leucyl-L-phenylalanine (FMLP, 100 μM) and reaction for 10 minutes to activate neutrophils.

[5] = target: T1, human neutrophil elastase (Homo sapiens, UniProt P08246); assay: Inhibition of NE activity in supernatant of activated neutrophils; assay type: biochemical; settings: supernatant of FMLP/CB-activated human neutrophils containing NE; mean ± S.E.M. (n = 3)
T1 construct: endogenous in cells; cell-free supernatant used
T1 sequence (P08246 30-267): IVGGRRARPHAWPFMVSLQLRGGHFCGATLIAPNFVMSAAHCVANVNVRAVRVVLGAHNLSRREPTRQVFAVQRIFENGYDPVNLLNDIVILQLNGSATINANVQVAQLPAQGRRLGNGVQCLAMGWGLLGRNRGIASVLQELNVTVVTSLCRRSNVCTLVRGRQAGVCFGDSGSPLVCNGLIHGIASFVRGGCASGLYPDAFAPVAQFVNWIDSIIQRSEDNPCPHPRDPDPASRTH
Text: The neutrophils obtained in the section of “3. […] In a control group, 100% DMSO was used to substitute the compound solution. Moreover, in the positive control group, PMSF was used to substitute the compound solution.

human NE = target: T2, human NE (Homo sapiens, UniProt P08246); assay: Inhibition of commercially available pure neutrophil elastase; assay type: biochemical; settings: 0.0075 U/ml human NE (Sigma), 96-well plate, 30 minutes, 405 nm
T2 construct: purchased Sigma, St. Louis, Mo; USA
T2 sequence (P08246 30-267): T1 sequence (P08246 30-267)
Text: In a control group, 0.1% DMSO was used to substitute the compound solution. Moreover, in the positive control group, PMSF was used to substitute the compound solution.

[6] = sham-operated rats, E7 (group 2) vs vehicle (group 1)

Compound | IC50 (Human neutrophils [3]) [µM] | IC50 (Human neutrophils [4]; Neutrophil) [µM] | further results
O=c1oc(-c2ccccc2Br)nc2cccc(Cl)c12 [Compound E7, 5-chloro-2-(2′-bromophenyl)-4H-benzo[d][1,3]oxazin-4-one] | – | – | MPO activity in lung tissue [1, 6]: no significant difference; MPO activity in lung tissue ([1]; trauma-hemorrhage rats, E7 (experimental group 2) vs vehicle (experimental group 1), 24 hours after resuscitation, p<0.01): significantly reduced; water content in lung tissue (wet weight/dry weight) [2, 6]: no significant difference; water content in lung tissue (wet weight/dry weight) ([2]; trauma-hemorrhage rats, E7 (experimental group 2) vs vehicle (experimental group 1), 24 hours after resuscitation, p<0.001): significantly reduced
c1ccc2c(c1)[I+]c1ccccc1-2 [DPI, diphenyleneiodonium] | 0.97 ± 0.395 | – | –
O=S(=O)(F)Cc1ccccc1 [PMSF, phenylmethylsulfonyl fluoride] | – | – | IC50 (Human neutrophils [4]): 110 ± 25 µM; IC50 [5]: 95.2 ± 19.2 µM; IC50 (human NE): 52.2 ± 1.07 µM
CC(C)C[C@H](NC(=O)N[C@H](C(=O)N[C@@H](CCC(N)=O)C(=O)N[C@@H](C)C=O)[C@@H]1CCNC(=N)N1)C(=O)O [Elastatinal, elastatinal] | – | 56.5 ± 9.13 | –

Further lines, with some results ahead:

IC50 (Human neutrophils [3]) [µM] | IC50 (Human neutrophils [4]; Neutrophil) [µM] | Compound | further results
> 25 | 6.03 ± 0.65 | O=c1oc(-c2ccccc2F)nc2c(Cl)cccc12 [CE1, 8-chloro-2-(2′-fluorophenyl)-4H-benzo[d][1,3]oxazin-4-one] | –
17.5 ± 2.69 | > 25 | Cc1ccccc1-c1nc2c(Cl)cccc2c(=O)o1 [CE4, 8-chloro-2-(2′-methylphenyl)-4H-benzo[d][1,3]oxazin-4-one] | –
10 ± 0.59 | 1.91 ± 0.14 | COc1ccccc1-c1nc2c(Cl)cccc2c(=O)o1 [CE5, 8-chloro-2-(2′-methoxylphenyl)-4H-benzo[d][1,3]oxazin-4-one] | –
8.66 ± 1.44 | 1.89 ± 1.1 | O=c1oc(-c2ccccc2Cl)nc2c(Cl)cccc12 [CE2, 8-chloro-2-(2′-chlorophenyl)-4H-benzo[d][1,3]oxazin-4-one] | –
6.56 ± 3.09 | 1.69 ± 0.3 | O=c1oc(-c2ccccc2Br)nc2c(Cl)cccc12 [CE3, 8-chloro-2-(2′-bromophenyl)-4H-benzo[d][1,3]oxazin-4-one] | –
